According to the supplement of paper PMC10307832:

Key:
Test in all cases: relative viability (nuclei count vs DMSO), 5 days (fraction); higher = more cells survive
Carfilzomib + Dasatinib = compound: CC(C)C[C@H](NC(=O)[C@H](CCc1ccccc1)NC(=O)CN1CCOCC1)C(=O)N[C@@H](Cc1ccccc1)C(=O)N[C@@H](CC(C)C)C(=O)[C@@]1(C)CO1 [Carfilzomib] + Cc1nc(Nc2ncc(C(=O)Nc3c(C)cccc3Cl)s2)cc(N2CCN(CCO)CC2)n1 [Dasatinib] (partner 0.075 µM)
In short: (§1)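 A single step with final 0.05% Triton X-100, 1% formaldehyde and 1 ug/ml Hoechst fixed the cells and stained nuclei 5 days after treatment. Lung cancer cell lines in 1536-well plates had been treated by pin tool the day after seeding with one drug alone or a fixed anchor-drug dose plus five library-drug doses (not always all listed) in √10 steps, and nuclei were counted on 4× images. Relative viability is the ratio of nuclei in treated wells to nuclei in vehicle wells, taken as the median of duplicate plates.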

Carfilzomib + Vorinostat = compound: CC(C)C[C@H](NC(=O)[C@H](CCc1ccccc1)NC(=O)CN1CCOCC1)C(=O)N[C@@H](Cc1ccccc1)C(=O)N[C@@H](CC(C)C)C(=O)[C@@]1(C)CO1 [Carfilzomib] + O=C(CCCCCCC(=O)Nc1ccccc1)NO [Vorinostat] (partner 1 µM)
In short: as §1

Olaparib + AZD7762 = compound: O=C(c1cc(Cc2n[nH]c(=O)c3ccccc23)ccc1F)N1CCN(C(=O)C2CC2)CC1 [Olaparib] + NC(=O)Nc1cc(-c2cccc(F)c2)sc1C(=O)N[C@H]1CCCNC1 [AZD7762] (partner 0.2 µM)
In short: as §1

Olaparib + Vorinostat = compound: O=C(c1cc(Cc2n[nH]c(=O)c3ccccc23)ccc1F)N1CCN(C(=O)C2CC2)CC1 [Olaparib] + O=C(CCCCCCC(=O)Nc1ccccc1)NO [Vorinostat] (partner 1 µM)
In short: as §1

Cell Line	relative viability (Carfilzomib + Dasatinib; first compound 0.001 µM)	relative viability (Carfilzomib + Dasatinib; first compound 0.003162 µM)	relative viability (Carfilzomib + Dasatinib; first compound 0.01 µM)	relative viability (Carfilzomib + Dasatinib; first compound 0.03162 µM)	relative viability (Carfilzomib + Dasatinib; first compound 0.1 µM)	relative viability (Carfilzomib + Vorinostat; first compound 0.001 µM)	relative viability (Carfilzomib + Vorinostat; first compound 0.003162 µM)	relative viability (Carfilzomib + Vorinostat; first compound 0.01 µM)	relative viability (Carfilzomib + Vorinostat; first compound 0.03162 µM)	relative viability (Carfilzomib + Vorinostat; first compound 0.1 µM)	relative viability (Olaparib + AZD7762; first compound 0.08 µM)	relative viability (Olaparib + AZD7762; first compound 0.253 µM)	relative viability (Olaparib + AZD7762; first compound 2.53 µM)	relative viability (Olaparib + AZD7762; first compound 8 µM)	relative viability (Olaparib + Vorinostat; first compound 0.08 µM)	relative viability (Olaparib + Vorinostat; first compound 0.253 µM)	relative viability (Olaparib + Vorinostat; first compound 2.53 µM)	relative viability (Olaparib + Vorinostat; first compound 8 µM)
201T	0.51	0.61	0.643	0.593	0.522	0.929	1	0.985	0.93	0.514	0.641	0.609	0.522	0.383	1.07	0.912	0.954	0.947
A-427	0.776	0.853	0.597	0.0935	0.107	0.874	0.859	0.842	0.307	0.15	0.786	0.671	0.579	0.427	0.911	0.863	0.871	0.76
ABC-1	0.521	0.504	0.196	0.172	0.324	0.706	0.534	0.35	0.274	0.257	0.799	0.75	0.842	0.691	1.13	–	1.08	1.07
BEN	0.294	0.328	0.299	0.298	0.203	0.549	0.503	0.552	0.598	0.273	0.638	0.571	0.727	0.664	0.625	0.606	0.582	0.566
CAL-12T	0.321	0.484	0.509	0.174	0.108	0.722	0.794	0.77	0.487	0.121	0.757	0.555	0.726	0.544	1.15	0.663	0.917	0.687
COR-L23	0.478	0.523	0.425	0.0606	0.0642	0.454	0.438	0.212	0.0648	0.0718	–	–	–	–	0.508	0.43	0.228	0.239
COR-L 105	0.409	0.393	0.319	0.235	0.167	0.95	1	0.805	0.381	0.283	–	–	–	–	0.782	0.717	0.781	0.79
ChaGo-K-1	0.546	0.591	0.585	0.335	0.203	0.718	0.802	0.589	0.235	0.157	0.955	0.785	0.811	0.626	0.815	0.665	0.63	0.416
EKVX	0.49	0.342	0.597	0.478	0.214	0.663	0.958	0.783	0.561	0.231	0.81	0.618	0.782	0.741	0.667	0.679	0.776	0.646
EMC-BAC-2	0.327	0.363	0.35	0.256	0.256	0.434	0.587	0.524	0.247	0.126	1.25	1.08	1.08	0.91	0.584	0.405	0.703	0.446
EPLC-272H	0.379	0.407	0.215	0.0812	0.0631	0.518	0.417	0.108	0.055	0.0448	0.289	0.163	0.176	0.114	0.513	0.386	0.472	0.4
H3255	0.356	0.431	0.486	0.339	0.355	0.546	0.954	0.929	–	0.811	1.04	0.823	0.852	0.933	0.859	0.722	0.904	0.757
HARA	0.324	0.312	0.32	0.0493	0.0578	0.507	0.561	0.501	0.436	0.0635	0.302	0.43	0.251	0.206	0.45	0.472	0.553	0.507
HCC-15	0.609	0.654	0.673	0.3	0.0867	0.927	0.821	0.951	0.506	0.132	1.24	1.11	1.23	1.08	0.956	0.819	0.83	0.687
HCC-44	–	–	–	–	–	1.2	1.1	1.13	1.17	0.604	1.01	1	1.03	1.07	1.12	1.06	1.22	1.16
